Patent US20210002262A1, “CYANOPYRROLIDINES AS USP30 INHIBITORS AND FIBROSIS TREATMENT” (MISSION THERAPEUTICS LIMITED, priority 2018, published 2021)
pIC50: −log10 of the molar value. Entries after “also recorded” stand apart in the source; their conditions may differ.

Legend:
USP30 = molecular target: T1, USP30 (Homo sapiens, UniProt Q70CQ3); test: USP30 biochemical IC50 assay; conditions: Examples of WO 2017/103614
T1 sequence (Q70CQ3 1-517): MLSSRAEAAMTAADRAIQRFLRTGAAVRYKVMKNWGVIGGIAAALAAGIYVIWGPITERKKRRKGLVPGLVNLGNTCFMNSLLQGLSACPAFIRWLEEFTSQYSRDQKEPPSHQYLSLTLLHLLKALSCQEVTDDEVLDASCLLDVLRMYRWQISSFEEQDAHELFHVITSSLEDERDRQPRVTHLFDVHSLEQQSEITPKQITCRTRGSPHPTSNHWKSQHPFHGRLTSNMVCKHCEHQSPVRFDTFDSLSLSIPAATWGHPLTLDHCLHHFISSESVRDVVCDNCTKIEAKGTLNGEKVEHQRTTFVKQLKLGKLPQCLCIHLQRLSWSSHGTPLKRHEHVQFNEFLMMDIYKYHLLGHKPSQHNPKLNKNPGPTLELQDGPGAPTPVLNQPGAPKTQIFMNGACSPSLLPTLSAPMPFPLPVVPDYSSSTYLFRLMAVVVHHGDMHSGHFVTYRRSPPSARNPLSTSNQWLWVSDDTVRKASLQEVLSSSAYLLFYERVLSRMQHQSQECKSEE
Experimental: Dilution plates were prepared at 21 times the final concentration (2100 μM for a final concentration of 100 μM) in 50% DMSO in a 96-well polypropylene V-bottom plate (Greiner #651201). A typical 8-point dilution series would be 100, 30, 10, 3, 1, 0.3, 0.1, 0.03 μM final. Reactions were performed in duplicate in black 384 well plates (small volume, Greiner 784076) in a final reaction volume of 21 μl. Either 1 μl of 50% DMSO or diluted compound was added to the plate. USP30 was diluted in reaction buffer (40 mM Tris, pH 7.5, 0.005% Tween 20, 0.5 mg/ml BSA, 5 mM beta-mercaptoethanol) to the equivalent of 0.05 μl/well and 10 μl of diluted USP30 was added to the compound. Enzyme and compound were incubated for 30 min at room temp. Reactions were initiated by the addition of 50 nM of TAMRA labelled peptide linked to ubiquitin via an iso-peptide bond as fluorescence polarisation substrate. Reactions were read immediately after addition of substrate and following a 2-hour incubation at room temperature. Readings were performed on a Pherastar Plus (BMG Labtech). λ Excitation 540 nm; λ Emission 590 nm.

[1] = system: Unilateral ureteral obstruction (UUO) kidney fibrosis; test: Unilateral ureteral obstructive kidney disease model (UUO); format: in vivo; conditions: for In life mortality / collagen (picrosirius red staining): UUO
Excerpt: In this study, adult C57B16 female mice at 7 to 8 weeks of age with average weight of around 18 to 20 g were used. To complete the ureteral obstruction, the abdominal cavity was exposed via a midline incision and the left ureter was ligated at two points with 4-0 silk and dissected. Successful unilateral ureteral obstruction was later confirmed by observation of dilation of the renal pelvis due to hydronephrosis.
At harvest, mice were anesthetised and both kidneys were harvested; the contralateral kidney serves as control for the UUO kidney. The kidneys were dissected along median line into two parts, of which one side was fixed in formaldehyde, for paraffin embedding and the other was snap frozen for protein or RNA isolation.
Formalin fixed tissue were embedded in paraffin blocks and cut into 5 μm sections. All damaged kidneys, 5 contralateral kidneys from each group and 3 sham kidneys were analysed (in total n=80 kidney samples). Picrosirius Red and α-SMA stain was performed to evaluate fibrotic changes and myofibroblast activation. Analysis was performed by a pathology trained technical staff member, without knowledge of the animal group assignment. High magnification images were taken of each slide an analysed for the surface area covered by the stain.

diet-induced NAFLD/NASH = test: Diet-induced model of NAFLD/NASH; format: in vivo, mice; conditions: 8 weeks
Experimental: Mice were fed Amylin-diet (D09100301, Research Diets, US; 40% fat (18% trans-fat), 40% carbohydrate (20% fructose) and 2% cholesterol) for 37 weeks. Liver biopies were harvested and mice were randomization into treatment groups based on liver Colla1 quantification. Three weeks following biopsy surgery, study animals were dosed orally (P.O.) with either; Vehicle (0.5% HPMC/0.5% PVP/0.1% SDS nanosuspension), MT#1 @ 15 mg/kg QD or MT#1 @ […] QD […] or with Elafibranor @ 30 mg/kg QD (positive control) for eight (8) weeks. A control group of age- and sex-matched mice fed lean chow diet ad libitum were also administered vehicle (P.O) over the same 8 (eight) week period. Following the full dosing schedule, mice were sacrificed, whole livers resected and weighed, fixed in paraformaldehyde before being paraffin embedded. H&E stained slides were then prepared and the average % fractional area of lipid vacuoles (steatosis) determined for each section (@ 20×objective) using Visiomorph software (Visophram, Denmark). The average % fractional area was multiplied by the total liver weight to determine the total liver lipid content per animal. Values expressed as mean of n=9-12+SEM. Dunnett's test one-factor linear model. **: P<0.01, ***: P<0.001 compared to DIO-NASH Vehicle.
Summary of fibrosis stage scores of pre- and post-study liver biopsies harvested from the diet-induced NAFLD/NASH study. Fibrosis stage scores are determined by assessment of picosirius red stained liver sections for relative appearance and location of collagen staining, where; 0=No staining, 1=Perisinusoidal or periportal, 2=Perisinusoidal and periportal and […]=Bridging collagen staining observed. For each group of animals with higher (worsening), same or lower (improvement) in score at post-compared to pre-study is indicated by the height of the bar. One-sided Fisher's exact test with Bonferroni correction. No differences at significance level 0.05.

[2] = system: Bleomycin-induced lung fibrosis; test: Bleomycin-induced lung fibrosis model; conditions: for In life mortality: oral, days 7 to 21, bleomycin 1.5 U/kg
Experimental: Treatment group animals (n=10/group) received 1.5 U/kg of clinical bleomycin via oropharyngeal route on day 0 under inhalant anaesthesia. Animals were monitored for tolerance of the bleomycin administration procedure and subsequently bodyweights of all mice were recorded at least 3 times per week during the study. […] All treatments were administered orally.
At day 21, lungs were harvested from each animal and weighed, followed by fixation in 10% neutral buffered formalin (NBF) for histopathological analysis. The lung samples were processed and embedded with all lobes from each mouse in one paraffin block. Coronal sections through the four major lobes were stained with Masson's Trichrome. For each animal, consecutive lung fields were examined at 200×magnification in a raster pattern using a 20×objective lens and a 10×ocular lens. […] The Fibrotic Index was calculated as the sum of the modified Ashcroft field scores divided by the number of fields examined.

## N#Cc1cccc(-c2nnc(C(=O)NC[C@H]3CCN(C#N)C3)o2)c1 [Example 68, (R)-5-(3-cyanophenyl)-N-((1-cyanopyrrolidin-3-yl)methyl)-1,3,4-oxadiazole-2-carboxamide]
USP30
  pIC50: > 8.00
[1]; 5 mg/kg MT#1 nanosuspension BID PO, days 0 to 10
  In life mortality: 10%
[1]; 15 mg/kg BID MT#1
  collagen (picrosirius red staining): Statistically significant decreases
[1]; 15 mg/kg MT#1 nanosuspension BID PO, days 0 to 10
  In life mortality: 0%
[1]; 50 mg/kg BID MT#1
  collagen (picrosirius red staining): Statistically significant decreases
[1]; 50 mg/kg MT#1 nanosuspension BID PO, days 0 to 10
  In life mortality: 10%
[1]; UUO, 5, 15, 50 mg/kg BID PO, days 0 to 10
  collagen deposition as measured by picrosirius red staining: dose dependent decrease
diet-induced NAFLD/NASH; NASH animals, MT#1 15 mg/kg BID (P.O.), compared to DIO-NASH Vehicle
  total liver lipid content, reduction: statistically significant
diet-induced NAFLD/NASH; NASH animals, P.O., dose dependence
  total liver lipid content: dose-dependent reduction
diet-induced NAFLD/NASH; diet-induced NAFLD/NASH, P.O., Elafibranor 30 mg/kg QD
  liver steatosis: statistically significant reduction
diet-induced NAFLD/NASH; diet-induced NAFLD/NASH, P.O., Elafibranor 30 mg/kg QD, listed as MT#1
  fibrotic stage scores (picosirius red stained liver sections, post- compared to pre-study biopsy): Neither MT#1 or Elafibranor (positive control) significantly improved; also recorded: did not significantly improve
[2]; 5 mg/kg MT#1 nanosuspension BID
  In life mortality: 10%
[2]; 15 mg/kg MT#1 nanosuspension BID
  In life mortality: 10%
[2]; 50 mg/kg BID oral, one-way ANOVA + Tukey
  fibrosis as assessed by the modified Ashcroft score, effect compared to vehicle: statistically significant effect compared to vehicle
[2]; 50 mg/kg MT#1 nanosuspension BID
  In life mortality: 0%
[2]; dose ranging 5, 15, 50 mg/kg BID oral, days 7 to 21, harvest day 21
  fibrosis as assessed by the modified Ashcroft score (collagen deposition, septae thickening): dose dependent reduction
